Test results published in ChEMBL document CHEMBL4840354, “Identification of Diarylurea Inhibitors of the Cardiac-Specific Kinase TNNI3K by Designing Selectivity Against VEGFR2, p38α, and B-Raf” (J Med Chem, 2021).

Key:
[1] = biological target: Serine/threonine-protein kinase B-raf (Homo sapiens, UniProt P15056); assay: Inhibition of B-Raf (unknown origin)
[2] = biological target: T1, Serine/threonine-protein kinase TNNI3K (Homo sapiens, UniProt Q59H18); assay: Inhibition of TNNI3K (unknown origin)
T1 sequence (Q59H18 whole entry): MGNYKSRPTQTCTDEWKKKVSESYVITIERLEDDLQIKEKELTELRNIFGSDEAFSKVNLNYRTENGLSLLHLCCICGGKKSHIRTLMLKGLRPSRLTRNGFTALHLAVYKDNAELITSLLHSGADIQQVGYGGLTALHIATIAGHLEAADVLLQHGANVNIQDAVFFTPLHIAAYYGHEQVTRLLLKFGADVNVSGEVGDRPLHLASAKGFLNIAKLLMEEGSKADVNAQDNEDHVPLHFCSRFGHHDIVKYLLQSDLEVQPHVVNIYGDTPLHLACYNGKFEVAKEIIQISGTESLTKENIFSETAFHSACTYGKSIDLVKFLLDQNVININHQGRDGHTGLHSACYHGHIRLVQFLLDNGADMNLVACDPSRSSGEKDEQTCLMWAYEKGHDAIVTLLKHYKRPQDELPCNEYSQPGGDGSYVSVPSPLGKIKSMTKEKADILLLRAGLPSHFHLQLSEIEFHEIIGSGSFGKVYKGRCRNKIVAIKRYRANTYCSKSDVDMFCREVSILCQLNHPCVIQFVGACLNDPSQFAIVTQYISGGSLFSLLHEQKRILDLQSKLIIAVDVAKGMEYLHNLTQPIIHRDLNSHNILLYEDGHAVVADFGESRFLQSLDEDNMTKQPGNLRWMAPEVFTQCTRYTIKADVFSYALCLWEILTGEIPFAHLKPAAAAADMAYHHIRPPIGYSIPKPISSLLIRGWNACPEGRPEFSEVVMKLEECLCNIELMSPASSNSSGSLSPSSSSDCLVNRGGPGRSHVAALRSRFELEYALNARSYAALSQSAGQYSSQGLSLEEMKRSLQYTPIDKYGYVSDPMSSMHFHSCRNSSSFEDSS

Homo sapiens [3] = species: Homo sapiens; assay: Selectivity index, ratio of IC50 for inhibition of VEGFR2 (unknown origin) to IC50 for inhibition of TNNI3K (unknown origin)
Homo sapiens [4] = species: Homo sapiens; assay: Selectivity index, ratio of IC50 for inhibition of p38alpha (unknown origin) to IC50 for inhibition of TNNI3K (unknown origin)
[5] = biological target: Vascular endothelial growth factor receptor 2 (Homo sapiens, UniProt P35968); assay: Inhibition of GST-6His tagged VEGFR2 (unknown origin) using biotin-aminohexyl-EEEEYFELVAKKKK-NH2 peptide substrate incubated for 90 mins by HTRF assay
[6] = biological target: Mitogen-activated protein kinase 14 (Homo sapiens, UniProt Q16539); assay: Inhibition of p38alpha (unknown origin)
Mitogen-activated protein kinase 14, sequence (Q16539 whole entry): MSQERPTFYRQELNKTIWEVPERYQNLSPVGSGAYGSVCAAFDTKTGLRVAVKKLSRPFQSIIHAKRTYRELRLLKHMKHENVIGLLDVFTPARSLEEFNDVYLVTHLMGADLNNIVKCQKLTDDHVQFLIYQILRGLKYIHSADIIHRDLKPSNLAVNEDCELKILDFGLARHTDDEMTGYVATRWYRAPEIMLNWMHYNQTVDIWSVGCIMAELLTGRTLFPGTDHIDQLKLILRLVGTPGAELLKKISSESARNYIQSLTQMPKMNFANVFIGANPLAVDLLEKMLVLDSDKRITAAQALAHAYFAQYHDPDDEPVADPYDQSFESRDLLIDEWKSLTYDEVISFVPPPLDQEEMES

Serine/threonine-protein kinase B-raf, sequence (P15056 whole entry): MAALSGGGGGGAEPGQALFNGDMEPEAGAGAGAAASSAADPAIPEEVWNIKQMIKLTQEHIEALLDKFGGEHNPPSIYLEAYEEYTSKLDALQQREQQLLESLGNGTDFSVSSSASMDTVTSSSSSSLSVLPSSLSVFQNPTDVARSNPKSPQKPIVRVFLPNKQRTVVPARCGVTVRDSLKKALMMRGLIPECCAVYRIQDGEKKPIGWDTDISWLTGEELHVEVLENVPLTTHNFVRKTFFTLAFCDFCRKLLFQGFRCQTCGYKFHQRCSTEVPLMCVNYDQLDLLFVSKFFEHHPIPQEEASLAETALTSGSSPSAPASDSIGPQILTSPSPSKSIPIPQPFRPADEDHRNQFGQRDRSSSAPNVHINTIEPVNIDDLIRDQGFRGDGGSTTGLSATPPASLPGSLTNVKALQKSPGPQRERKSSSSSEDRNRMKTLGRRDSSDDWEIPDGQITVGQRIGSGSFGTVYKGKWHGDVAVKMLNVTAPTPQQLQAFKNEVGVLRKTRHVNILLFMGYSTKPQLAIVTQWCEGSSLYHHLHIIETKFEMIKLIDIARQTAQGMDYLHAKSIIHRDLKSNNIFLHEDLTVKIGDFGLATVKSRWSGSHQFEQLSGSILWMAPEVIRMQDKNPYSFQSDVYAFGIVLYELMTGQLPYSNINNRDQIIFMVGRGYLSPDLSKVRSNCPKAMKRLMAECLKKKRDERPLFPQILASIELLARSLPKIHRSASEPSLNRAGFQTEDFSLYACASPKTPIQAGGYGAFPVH
Vascular endothelial growth factor receptor 2, sequence (P35968 whole entry): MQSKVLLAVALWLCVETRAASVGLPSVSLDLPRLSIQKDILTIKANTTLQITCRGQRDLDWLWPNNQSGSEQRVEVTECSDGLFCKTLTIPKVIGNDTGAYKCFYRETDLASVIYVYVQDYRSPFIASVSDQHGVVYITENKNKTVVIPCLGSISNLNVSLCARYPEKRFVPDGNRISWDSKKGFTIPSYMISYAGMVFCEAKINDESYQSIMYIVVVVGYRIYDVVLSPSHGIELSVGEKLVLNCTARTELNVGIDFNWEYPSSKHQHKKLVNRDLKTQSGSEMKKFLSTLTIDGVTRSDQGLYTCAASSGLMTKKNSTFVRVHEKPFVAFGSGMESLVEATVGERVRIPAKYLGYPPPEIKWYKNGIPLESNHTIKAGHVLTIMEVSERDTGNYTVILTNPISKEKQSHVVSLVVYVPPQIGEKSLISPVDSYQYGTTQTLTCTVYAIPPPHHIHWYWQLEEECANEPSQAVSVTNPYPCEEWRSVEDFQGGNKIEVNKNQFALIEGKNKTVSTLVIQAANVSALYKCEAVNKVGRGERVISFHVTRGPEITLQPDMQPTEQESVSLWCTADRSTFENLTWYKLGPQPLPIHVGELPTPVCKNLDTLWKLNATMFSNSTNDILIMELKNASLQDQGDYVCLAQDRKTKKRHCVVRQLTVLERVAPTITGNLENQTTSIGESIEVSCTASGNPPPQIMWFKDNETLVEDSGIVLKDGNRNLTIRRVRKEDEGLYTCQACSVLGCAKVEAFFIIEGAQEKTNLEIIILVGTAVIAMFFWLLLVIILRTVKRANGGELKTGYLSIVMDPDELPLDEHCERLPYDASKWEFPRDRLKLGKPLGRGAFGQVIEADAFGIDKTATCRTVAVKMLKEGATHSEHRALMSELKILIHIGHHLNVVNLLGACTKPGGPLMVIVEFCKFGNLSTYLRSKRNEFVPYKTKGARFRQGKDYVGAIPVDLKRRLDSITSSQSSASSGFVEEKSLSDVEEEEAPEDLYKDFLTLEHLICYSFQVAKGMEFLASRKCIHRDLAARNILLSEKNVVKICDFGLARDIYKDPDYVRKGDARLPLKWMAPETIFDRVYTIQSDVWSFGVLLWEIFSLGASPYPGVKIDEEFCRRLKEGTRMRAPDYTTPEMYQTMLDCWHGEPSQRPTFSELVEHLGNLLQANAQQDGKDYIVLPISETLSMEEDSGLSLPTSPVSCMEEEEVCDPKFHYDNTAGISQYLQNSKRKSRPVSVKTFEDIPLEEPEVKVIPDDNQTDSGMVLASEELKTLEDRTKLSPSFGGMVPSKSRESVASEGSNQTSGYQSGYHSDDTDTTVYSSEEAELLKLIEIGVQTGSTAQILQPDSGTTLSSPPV

SMILES | IC50 [1] [nM] | IC50 [2] [nM] | Ratio IC50 (Homo sapiens [3]) | Ratio IC50 (Homo sapiens [4]) | IC50 [5] [nM] | IC50 [6] [nM]
CNc1cc(Oc2ccc(NC(=O)Nc3cccc(CF)c3)cc2)ncn1 | > 2000 | 400 | 1 | 63 | 400 | 25000
CN(C)c1cc(Oc2ccc(NC(=O)Nc3cccc(C(F)(F)F)c3)cc2)ncn1 | 1000 | 2500 | 1 | 0.8 | 2500 | 2000
CNc1cc(Oc2ccc(NC(=O)Nc3cccc(C(F)F)c3)cc2)ncn1 | > 2000 | 100 | 1.3 | 62 | 130 | 6300
O=C(Nc1ccc(Oc2cc(O)ncn2)cc1)Nc1cccc(C(F)(F)F)c1 | > 2000 | 3200 | 1 | 0.5 | 3200 | 1600
CNC(=O)c1cc(Oc2ccc(NC(=O)Nc3cccc(C(F)(F)F)c3)cc2)ccn1 |  | 79 | 0.05 | 4 | 4 | 320
C[C@@H](O)CNc1cc(Oc2ccc(NC(=O)Nc3cccc(C(F)(F)F)c3)cc2)ncn1 | 1000 | 63 | 3.2 | 8 | 200 | 500
CNc1nccc(Oc2ccc(NC(=O)Nc3cccc(C(F)(F)F)c3)cc2)n1 | 63 | 50 | 0.64 | 1 | 32 | 50
CC(C)CNc1cc(Oc2ccc(NC(=O)Nc3cccc(C(F)(F)F)c3)cc2)ncn1 | 1260 | 50 | 6.4 | 5 | 320 | 250
COc1cc2ncnc(Oc3ccc(NC(=O)Nc4cccc(C(F)(F)F)c4)cc3)c2cc1OC | 63 | 23 | 0.08 | 32 | 2 | 800
CNc1cc(Oc2ccc(NC(=O)Nc3cccc(C(F)(F)F)c3)cc2Cl)ncn1 | 500 | 50 | 1 | 16 | 50 | 800
CNc1cc(Oc2ccc(NC(=O)Nc3cccc(C(C)(C)C)c3)cc2)ncn1 | 400 | 40 | 0.63 | 25 | 25 | 1000
CNc1cc(Oc2ccc(NC(=O)Nc3cccc(C(F)(F)F)c3)c(F)c2)ncn1 | 63 | 63 | 0.1 | 6.3 | 6.3 | 400
CCc1cccc(NC(=O)Nc2ccc(Oc3cc(NC)ncn3)cc2)c1 | > 2000 | 200 | 0.65 | 80 | 130 | 16000
Cc1cc(Oc2ccc(NC(=O)Nc3cccc(C(F)(F)F)c3)cc2)c2ccccc2n1 | 1260 | > 50000 |  | < 0.02 | > 10000 | 1000
CNc1cc(Oc2ccc(NC(=O)Nc3cccc(C)c3)cc2)ncn1 | > 2000 | 1260 | 0.63 | > 20 | 800 | > 25000
O=C(Nc1ccc(Oc2ncnc3[nH]ccc23)cc1)Nc1cccc(C(F)(F)F)c1 | 400 | 16 | 0.16 | 31 | 2.5 | 500
CNc1cc(Oc2ccc(NC(=O)Nc3ccccc3)cc2)ncn1 | > 2000 | 6300 | 1 | > 4 | 6300 | > 25000
CCCNc1cc(Oc2ccc(NC(=O)Nc3cccc(C(F)(F)F)c3)cc2)ncn1 | 630 | 32 |  | 13 | 19 | 400
CNc1cc(Oc2ccc(NC(=O)Nc3cccc(C(F)(F)F)c3)c(F)c2F)ncn1 | 16 | 20 | 0.13 | 8 | 2.5 | 160

SMILES | IC50 [1] [nM] | IC50 [2] [nM] | Ratio IC50 (Homo sapiens [3]) | Ratio IC50 (Homo sapiens [4]) | IC50 [5] [nM] | IC50 [6] [nM]
O=C(Nc1ccc(Oc2ccncc2)cc1)Nc1cccc(C(F)(F)F)c1 | 630 | 50 | 0.4 | 4 | 20 | 200
O=C(Nc1ccc(Oc2ccncn2)cc1)Nc1cccc(C(F)(F)F)c1 | 1000 | 160 | 0.3 | 3.9 | 50 | 630
C[C@H](O)CNc1cc(Oc2ccc(NC(=O)Nc3cccc(C(F)(F)F)c3)cc2)ncn1 | 800 | 32 | 10 | 10 | 320 | 320
CNc1cc(Oc2ccc(NC(=O)Nc3cccc(C(F)(F)F)c3)cc2C)ncn1 | 160 | ≤ 10 | > 6.3 | > 63 | 63 | 630
COc1cc(Oc2ccc(NC(=O)Nc3cccc(C(F)(F)F)c3)cc2)ncn1 | > 2000 | 4000 | 0.1 | 0.3 | 400 | 1260
O=C(Nc1ccc(Oc2ccnc3[nH]ccc23)cc1)Nc1cccc(C(F)(F)F)c1 | 320 | 32 | 0.1 | 1 | 3.2 | 32
O=C(Nc1ccc(Oc2ncnc3ccccc23)cc1)Nc1cccc(C(F)(F)F)c1 | 1260 | 800 | 0.4 | 1.6 | 320 | 1260
CCNc1cc(Oc2ccc(NC(=O)Nc3cccc(C(F)(F)F)c3)cc2)ncn1 | 500 | 25 | 0.64 | 13 | 16 | 320
CNc1cc(Oc2cc(C)c(NC(=O)Nc3cccc(C(F)(F)F)c3)cc2C)ncn1 | > 2000 | 32 | 63 | 160 | 2000 | 5000
CC(C)Nc1cc(Oc2ccc(NC(=O)Nc3cccc(C(F)(F)F)c3)cc2)ncn1 | 800 | 40 | 1.3 | 10 | 50 | 400
O=C(Nc1ccc(Oc2ccnc3ccccc23)cc1)Nc1cccc(C(F)(F)F)c1 | 200 | 63 | 0.08 | 1.6 | 5 | 100
CNc1cc(Oc2c(C)cc(NC(=O)Nc3cccc(C(F)(F)F)c3)c3ccccc23)ncn1 | > 2000 | 32 | 5 | 4 | 160 | 130
COc1ccc2ncnc(Oc3ccc(NC(=O)Nc4cccc(C(F)(F)F)c4)cc3)c2c1 | 400 | 100 | 0.1 | 16 | 10 | 1600
O=C(O)Cc1cccc(Nc2cc(Oc3ccc(NC(=O)Nc4cccc(C(F)(F)F)c4)cc3)ncn2)c1 | 630 | 10 | 0.04 | 40 | 0.4 | 400
CNc1cc(Oc2ccc(NC(=O)Nc3cccc(C(F)(F)F)c3)cc2F)ncn1 | 1600 |  | 0.64 | 40 | 16 | 1000
O=C(Nc1ccc(Oc2cc(Nc3cccc(CN4CCCC4)c3)ncn2)cc1)Nc1cccc(C(F)(F)F)c1 | 200 | 10 | 0.32 | 5 | 3.2 | 50
CNc1cc(Oc2ccc(NC(=O)Nc3cccc(C(C)(F)F)c3)cc2)ncn1 | 500 | 40 | 1 | 25 | 40 | 1000
CNc1cc(Oc2c(C)cc(NC(=O)Nc3cccc(C(F)(F)F)c3)cc2Cl)ncn1 | > 2000 | 79 | 5.1 | 25 | 400 | 2000
